Source: paper PMC9454456 (Journal of Nuclear Medicine, 2022)
Values belong to the molecule of their own block, whether it stands above or below them.

Assays:
in vivo [1] = assay: in vivo; set-up: species or system mice; details: mouse, iv, 3.4 MBq, total radioactivity, Biodistribution
Procedure: Blood and major organs were harvested immediately, weighed, and counted using a γ-counter. The radioactivity of each sample was calculated as the percentage of injected dose per gram of tissue (%ID/g) and corrected for radioactive decay.

physchem = assay type: physicochemical; details: pH 7.4
Procedure: The layers were separated by centrifugation at 2,000 rpm (416g) for 5 min. Aliquots of 100 μL were removed from each phase and measured in a Wizard γ-counter (PerkinElmer). Calculated logD7.4 values were expressed as the mean ± SD from 3 experiments.

in vivo [2] = details: mouse, iv, 7.4 MBq, total radioactivity
Procedure: (§1) Images were reconstructed using 3-dimensional ordered-subset expectation maximization with attenuation correction. Regions of interest were drawn over the tumors and main organs, and average signal levels in the regions were measured using an Inveon Research Workplace workstation.

PC3-xenografted mice [3] = details: mouse, in vivo
Procedure: as §1

NTR1 = biological target: T1, NTR1 (Homo sapiens, UniProt P30989); assay: Competitive receptor binding assay in NTR1-positive PC3 cells; details: 37 kBq tracer, NT 10^-8–10^2 μM as competitive inhibitor, 60 min, 37°C, γ-counter, mean ± SD, read-out: half-maximal inhibitory concentration
T1 construct: endogenous in cells; host or cells: PC3 human prostate adenocarcinoma cells
Procedure: After incubation for 60 min at 37°C, the medium of each well was removed and the cells were washed twice with PBS. The removed medium and washing PBS were collected to represent the amount of free radioligand. The adherent cells were lysed with NaOH (0.1 M, 200 μL) and harvested after being washed twice by PBS. Finally, the cell-bound radioactivity (3 × 10^5 cells/mL) and the amount of free radioligand were measured in a γ-counter. The half-maximal inhibitory concentration was calculated using GraphPad Prism software. […] The radioactivity of adherent cells (3 × 10^5 cells/mL) was then measured after they were extracted with NaOH (0.1 M, 200 μL) and washed twice with PBS.

PC3-xenografted mice [4] = assay: Small-animal PET/CT imaging, PC3 xenografts; details: PC3 xenograft, 7.4 MBq i.v., 1 h after injection, mean ± SD
Procedure: as §1

LNCap-xenografted mice = assay: Small-animal PET/CT imaging, LNCap xenografts; details: LNCap xenograft, 7.4 MBq i.v., 1 h after injection, mean ± SD
Procedure: as §1

T1 sequence (P30989 whole entry): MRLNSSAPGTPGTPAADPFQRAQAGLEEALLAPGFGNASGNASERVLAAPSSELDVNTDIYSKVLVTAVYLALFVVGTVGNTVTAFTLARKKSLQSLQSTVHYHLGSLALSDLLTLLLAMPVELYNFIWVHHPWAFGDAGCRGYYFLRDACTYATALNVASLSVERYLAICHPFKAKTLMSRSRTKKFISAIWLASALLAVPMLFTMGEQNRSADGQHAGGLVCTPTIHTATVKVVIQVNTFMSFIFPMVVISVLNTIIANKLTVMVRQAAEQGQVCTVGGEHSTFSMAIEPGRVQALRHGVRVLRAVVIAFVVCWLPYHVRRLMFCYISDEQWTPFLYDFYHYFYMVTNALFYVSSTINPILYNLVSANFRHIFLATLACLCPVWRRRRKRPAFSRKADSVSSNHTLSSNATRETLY

tissue uptake at 5 min (in vivo [1]; Blood): 8.11 ± 1.54 %ID/g
tissue uptake at 0.25 h (in vivo [1]; Blood): 4.15 ± 0.59 %ID/g
tissue uptake at 0.5 h (in vivo [1]; Blood): 2.56 ± 0.23 %ID/g
tissue uptake at 1 h (in vivo [1]; Blood): 1.12 ± 0.22 %ID/g
tissue uptake at 2 h (in vivo [1]; Blood): 0.43 ± 0.08 %ID/g
tissue uptake at 5 min (in vivo [1]; Bone): 2.27 ± 0.29 %ID/g
tissue uptake at 0.25 h (in vivo [1]; Bone): 2.35 ± 0.52 %ID/g
tissue uptake at 0.5 h (in vivo [1]; Bone): 1.27 ± 0.08 %ID/g
tissue uptake at 1 h (in vivo [1]; Bone): 0.86 ± 0.17 %ID/g
tissue uptake at 2 h (in vivo [1]; Bone): 0.53 ± 0.17 %ID/g
tissue uptake at 5 min (in vivo [1]; Brain): 1.91 ± 0.39 %ID/g
tissue uptake at 0.25 h (in vivo [1]; Brain): 1.35 ± 0.15 %ID/g
tissue uptake at 0.5 h (in vivo [1]; Brain): 0.88 ± 0.1 %ID/g
tissue uptake at 1 h (in vivo [1]; Brain): 0.6 ± 0.05 %ID/g
tissue uptake at 2 h (in vivo [1]; Brain): 0.33 ± 0.1 %ID/g
tissue uptake at 5 min (in vivo [1]; Fat): 1.42 ± 0.23 %ID/g
tissue uptake at 0.25 h (in vivo [1]; Fat): 1.11 ± 0.23 %ID/g
tissue uptake at 0.5 h (in vivo [1]; Fat): 0.62 ± 0.11 %ID/g
tissue uptake at 1 h (in vivo [1]; Fat): 0.32 ± 0.03 %ID/g
tissue uptake at 2 h (in vivo [1]; Fat): 0.32 ± 0.07 %ID/g
tissue uptake at 5 min (in vivo [1]; Heart): 7.7 ± 0.9 %ID/g
tissue uptake at 0.25 h (in vivo [1]; Heart): 3.88 ± 0.18 %ID/g
tissue uptake at 0.5 h (in vivo [1]; Heart): 2.78 ± 0.36 %ID/g
tissue uptake at 1 h (in vivo [1]; Heart): 1.57 ± 0.18 %ID/g
tissue uptake at 2 h (in vivo [1]; Heart): 0.58 ± 0.11 %ID/g
tissue uptake at 5 min (in vivo [1]; Intestine): 3.28 ± 0.3 %ID/g
tissue uptake at 0.25 h (in vivo [1]; Intestine): 2.31 ± 0.92 %ID/g
tissue uptake at 0.5 h (in vivo [1]; Intestine): 1.47 ± 0.26 %ID/g
tissue uptake at 1 h (in vivo [1]; Intestine): 0.77 ± 0.24 %ID/g
tissue uptake at 2 h (in vivo [1]; Intestine): 0.38 ± 0.04 %ID/g
tissue uptake at 5 min (in vivo [1]; Kidney): 18.4 ± 1.27 %ID/g
tissue uptake at 0.25 h (in vivo [1]; Kidney): 21.2 ± 1.95 %ID/g
tissue uptake at 0.5 h (in vivo [1]; Kidney): 23.1 ± 1.94 %ID/g
tissue uptake at 1 h (in vivo [1]; Kidney): 24.6 ± 0.98 %ID/g
tissue uptake at 2 h (in vivo [1]; Kidney): 26.1 ± 0.79 %ID/g
tissue uptake at 5 min (in vivo [1]; Liver): 5.46 ± 1.01 %ID/g
tissue uptake at 0.25 h (in vivo [1]; Liver): 3.17 ± 0.45 %ID/g
tissue uptake at 0.5 h (in vivo [1]; Liver): 2.02 ± 0.48 %ID/g
tissue uptake at 1 h (in vivo [1]; Liver): 1.44 ± 0.2 %ID/g
tissue uptake at 2 h (in vivo [1]; Liver): 0.86 ± 0.49 %ID/g
tissue uptake at 5 min (in vivo [1]; Lung): 5.18 ± 0.16 %ID/g
tissue uptake at 0.25 h (in vivo [1]; Lung): 3.28 ± 0.62 %ID/g
tissue uptake at 0.5 h (in vivo [1]; Lung): 1.91 ± 0.15 %ID/g
tissue uptake at 1 h (in vivo [1]; Lung): 1.2 ± 0.23 %ID/g
tissue uptake at 2 h (in vivo [1]; Lung): 0.75 ± 0.15 %ID/g
tissue uptake at 5 min (in vivo [1]; Muscle): 1.93 ± 0.65 %ID/g
tissue uptake at 0.25 h (in vivo [1]; Muscle): 1.44 ± 0.17 %ID/g
tissue uptake at 0.5 h (in vivo [1]; Muscle): 0.96 ± 0.08 %ID/g
tissue uptake at 1 h (in vivo [1]; Muscle): 0.51 ± 0.02 %ID/g
tissue uptake at 2 h (in vivo [1]; Muscle): 0.32 ± 0.04 %ID/g
tissue uptake at 5 min (in vivo [1]; Pancreas): 2.88 ± 0.61 %ID/g
tissue uptake at 0.25 h (in vivo [1]; Pancreas): 2.03 ± 0.26 %ID/g
tissue uptake at 0.5 h (in vivo [1]; Pancreas): 1.59 ± 0.6 %ID/g
tissue uptake at 1 h (in vivo [1]; Pancreas): 1.05 ± 0.07 %ID/g
tissue uptake at 2 h (in vivo [1]; Pancreas): 0.36 ± 0.04 %ID/g
tissue uptake at 5 min (in vivo [1]; Spleen): 3.97 ± 0.39 %ID/g
tissue uptake at 0.25 h (in vivo [1]; Spleen): 2.81 ± 0.47 %ID/g
tissue uptake at 0.5 h (in vivo [1]; Spleen): 1.85 ± 0.43 %ID/g
tissue uptake at 1 h (in vivo [1]; Spleen): 1.06 ± 0.27 %ID/g
tissue uptake at 2 h (in vivo [1]; Spleen): 0.41 ± 0.04 %ID/g
tissue uptake at 5 min (in vivo [1]; Stomach): 3.56 ± 0.31 %ID/g
tissue uptake at 0.25 h (in vivo [1]; Stomach): 2.49 ± 0.35 %ID/g
tissue uptake at 0.5 h (in vivo [1]; Stomach): 1.75 ± 0.38 %ID/g
tissue uptake at 1 h (in vivo [1]; Stomach): 0.91 ± 0.18 %ID/g
tissue uptake at 5 min (in vivo [1]; Testis): 1.62 ± 0.11 %ID/g
tissue uptake at 0.25 h (in vivo [1]; Testis): 1.31 ± 0.05 %ID/g
tissue uptake at 0.5 h (in vivo [1]; Testis): 0.8 ± 0.06 %ID/g
tissue uptake at 1 h (in vivo [1]; Testis): 0.42 ± 0.04 %ID/g
tissue uptake at 2 h (in vivo [1]; Testis): 0.31 ± 0.1 %ID/g
tissue uptake at 5 min (in vivo [1]; Tumor): 2.81 ± 0.39 %ID/g
tissue uptake at 0.25 h (in vivo [1]; Tumor): 3.93 ± 0.43 %ID/g
tissue uptake at 0.5 h (in vivo [1]; Tumor): 5.7 ± 0.8 %ID/g
tissue uptake at 1 h (in vivo [1]; Tumor): 6.26 ± 0.41 %ID/g
tissue uptake at 2 h (in vivo [1]; Tumor): 3.74 ± 0.56 %ID/g
logD (physchem): -3.68 ± 0.14
tissue uptake at 0.5 h (in vivo [2]): 4.53 ± 1.26 %ID/g
tumor retention time (PC3-xenografted mice [3]): up to 4 h
IC50 (NTR1): 7.59 ± 0.41 nM
Structure (SMILES): CC(=O)NC(CCCCNC(=O)CN1CCN(CC(=O)O)CCN(CC(=O)O)CCN(CC(=O)O)CC1)C(=O)N1CCCC1C(=O)N(C)C(CCCNC(=N)N)C(=O)NC(CCCNC(=N)N)C(=O)N1CCCC1C(=O)NC(Cc1ccc(O)cc1)C(=O)NC(C(=O)NC(CC(C)C)C(=O)O)C(C)(C)C (centres unmarked) [^68Ga-DOTA-NT-20.3, metal not drawn]

tumor uptake (PET region of interest) (PC3-xenografted mice [4]): 0.53 ± 0.05 %ID/g
tumor uptake (PET region of interest) (LNCap-xenografted mice): 8.60 ± 2.11 %ID/g
Structure (SMILES): O=C([O-])CN(CCN(CC(=O)[O-])Cc1cc(CCC(=O)NCCCCCC(=O)NCCCC[C@H](NC(=O)N[C@@H](CCC(=O)O)C(=O)O)C(=O)O)ccc1[O-])Cc1cc(CCC(=O)O)ccc1[O-].[68Ga+3].[OH3+] [^68Ga-PSMA-11]
